Values after ≈ are worked out from the molar mass of the structure shown. Like-named read-outs stand apart in the source and are kept apart here.
Legend:
Flu A (H3N2) = assay: Virucidal activity: virus pre-incubated with compound, applied to MDCK cells 1 h, removed, CPE after 6 days; format: cell-based, influenza A virus
Flu A (H5N1) = format: cell-based, influenza A virus; settings: virus treated one hour
Flu B Shanghai virus = assay: Virucidal activity: virus pre-incubated with compound 1 h, applied to MDCK cells 1 h, removed, CPE after 6 days; format: cell-based, influenza B virus
Procedure: For each test, a stock solution of the lead Compound C1 was made by first dissolving it in a small amount (50-100 microliters) of absolute ethanol (ETOH) followed by addition of growth nutrient medium to a final volume of 1 ml to bring the stock concentration of 20 mg/ml. It was tested at a concentration of 100 μg/ml, with half-log dilutions down to 0.032 μg/ml.
The compound C1 and the virus being tested were incubated together at 8 different concentrations for 1 hour at 37° C. Then virus/compound mixture applied to established cultured MDCK (Madin-Darby canine kidney) cells for 1 hour at 37° C. After 1 hour, the Virus/compound were removed, and replaced with new virus/compound free medium, and the indicator cells were further incubated for 6 days. Virus that survived the one hour pre-incubation and one hour exposure to indicator cells caused cytopathic effect (CPE) development. Results were evaluated by microscopic inspection (visual) as well as a spectrophotometic Neutral Red Dye Assay. The values shown represent the concentration (μg/ml) of C1 that caused a 50% virucidal effect (EC50). […]
The EC50 values were calculated by extrapolation from a plot of concentration versus virucidal activity data on semi-log paper. This allowed us to quantify complete virus killing of a small amount of virus (about 50-100 cell culture infectious doses).

SARS (urbani) = format: cell-based, Severe Acute Respiratory Syndrome (SARS) virus
[1] = system: Flu A (H5N1) Vietnam/1203/2004 H; format: cell-based, influenza A virus; settings: MDCK cells, continuous exposure
Flu B Shanghai/361/02 = format: cell-based, influenza B virus; settings: MDCK cells, continuous exposure
Procedure: (§1) The antiviral activity of barbituric acid analogs was also evaluated under conditions where the indicator cells to which virus had been previously added and then continuously exposed to different concentrations of C1 for the duration of the experiments. Eight different doses of C1 ranging from 100 μg/ml to half-log dilutions down to 0.032 μg/ml were added to the indicator cells after adding the indicated virus. This virus-cell combination was continuously exposed to C1 until untreated control wells developed a cytopathic effect (CPE) usually after 4 to 6 days of incubation at 37° C. At the end of incubation period at 37° C., the resulting cytopathic effect (CPE) in control and test wells was assessed by visual and a Neutral Red Dye assay.
(§2) Results of CPE versus concentration of C1 were plotted on a semi-log paper and the dose of C1 that caused a 50% inhibition of virus mediated CPE (EC50) was calculated.

Measles Chicago = format: cell-based; settings: CV-1 cells, continuous exposure
Procedure: as §1, §2

Rhinovirus HGP = format: cell-based; settings: HeLa Ohio-1 cells, continuous exposure
Procedure: as §1, §2

PIV 14702 = format: cell-based, Parainfluenza virus; settings: MA-104 cells, continuous exposure
Procedure: as §1, §2

RSV A A2 = format: cell-based, Respiratory Synsycitial virus; settings: MA-104 cells, continuous exposure
Procedure: as §1, §2

[2] = system: Influenza A/New Caledonia/20/99 (H1N1); assay: ETOH vs DMSO comparison: compound + virus 1 h at room temperature, then left on indicator cells 3 days, neutral red; format: cell-based, influenza A virus; settings: exposed to c1 + virus for 3 days
[3] = system: Influenza A/New Caledonia/20/99 (H1N1); assay: ETOH vs DMSO comparison: compound + virus 1 h at room temperature, on indicator cells 1 hour then removed, neutral red; format: cell-based, influenza A virus; settings: exposed to c1 + virus for 1 hour
[4] = system: Influenza A/California/7/04 (H3N2); assay: ETOH vs DMSO comparison: compound + virus 1 h at room temperature, then left on indicator cells 3 days, neutral red; format: cell-based, influenza A virus; settings: exposed to c1 + virus for 3 days
[5] = system: Influenza A/California/7/04 (H3N2); assay: ETOH vs DMSO comparison: compound + virus 1 h at room temperature, on indicator cells 1 hour then removed, neutral red; format: cell-based, influenza A virus; settings: exposed to c1 + virus for 1 hour

CCCCN1C(=O)CC(=O)N(CCCC)C1=S [Compound C1, 4,6(1H, 5H)-Pyrimidinedione, 1,3-dibutyldihydro-2-thioxo]
inactivation of the virus by treatment (Flu A (H3N2); FIG. 2): virtually complete inactivation | dose that caused a 50% inactivation (EC50) (Flu A (H3N2); visual method, virus treated for 4 hours (so in the source), MDCK indicator cells): 5.5 µg/mL | dose that caused a 50% inactivation (EC50) (Flu A (H5N1); Neutral red assay, after 6 days): 37 µg/mL | dose that caused a 50% inactivation (EC50) (Flu A (H5N1); visual method, % CPE after 6 days): 6.0 µg/mL | dose causing 50% inactivation of the virus (Flu B Shanghai virus; Neutral red dye assay): 37 µg/mL | dose causing 50% inactivation of the virus (Flu B Shanghai virus; visual method): 42 µg/mL | dose causing 50% inactivation of the virus (SARS (urbani); Neutral Red dye assay): 53 µg/mL | dose causing 50% inactivation of the virus (SARS (urbani); visual method): 12 µg/mL | EC50 ([1]; Neutral Red): 3 µg/mL (≈ 11.7 µM) | EC50 ([1]; Visual): 3 µg/mL (≈ 11.7 µM) | EC50 (Flu B Shanghai/361/02; Neutral Red): 3 µg/mL | EC50 (Flu B Shanghai/361/02; Visual): 3 µg/mL | EC50 (Measles Chicago; Neutral Red): 40 µg/mL | EC50 (Measles Chicago; Visual): 30 µg/mL | EC50 (Rhinovirus HGP; Neutral Red): 30 µg/mL | EC50 (Rhinovirus HGP; Visual): 30 µg/mL | EC50 (PIV 14702; Neutral Red): 30 µg/mL | EC50 (PIV 14702; Visual): 30 µg/mL | EC50 (RSV A A2; Neutral Red): 30 µg/mL | EC50 (RSV A A2; Visual): 30 µg/mL | Increase virucidal activity of C1 in DMSO ([2]; DMSO versus ETOH): 200% | EC50 of C1 in DMSO ([2]; dissolved in DMSO, neutral red): >2.6 µg/mL | EC50 of C1 in ETOH ([2]; dissolved in ETOH, neutral red): >4.5 µg/mL | Increase virucidal activity of C1 in DMSO ([3]; DMSO versus ETOH): 140% | EC50 of C1 in DMSO ([3]; dissolved in DMSO, neutral red): 30.0 µg/mL | EC50 of C1 in ETOH ([3]; dissolved in ETOH, neutral red): 42.0 µg/mL | Increase virucidal activity of C1 in DMSO ([4]; DMSO versus ETOH): 0% | EC50 of C1 in DMSO ([4]; dissolved in DMSO, neutral red): >1.9 µg/mL | EC50 of C1 in ETOH ([4]; dissolved in ETOH, neutral red): >1.8 µg/mL | Increase virucidal activity of C1 in DMSO ([5]; DMSO versus ETOH): 220% | EC50 of C1 in DMSO ([5]; dissolved in DMSO, neutral red): 20.0 µg/mL | EC50 of C1 in ETOH ([5]; dissolved in ETOH, neutral red): 42.0 µg/mL

Reference: patent US20070259903A1 (priority 2006, published 2007)
